Source: patent publication US20100063032A1, “SUBSTITUTED PYRIDO[2,3-D]PYRIMIDINE DERIVATIVES AS CANNABINOID-1 RECEPTOR MODULATORS” (priority 2007, published 2010)

Legend:
[1] = target: recombinant human CB1 receptor expressed in CHO cells (Homo sapiens, UniProt P21554); experiment: Cannabinoid Receptor-1 (CB1) Functional Activity Assay (intracellular cAMP, forskolin); type: cell-based; conditions: for EC50: cAMP level with forskolin; for functional mode at CB1 receptor: cAMP, Biological Example 3
Chain of recombinant human CB1 receptor expressed in CHO cells (P21554 whole entry): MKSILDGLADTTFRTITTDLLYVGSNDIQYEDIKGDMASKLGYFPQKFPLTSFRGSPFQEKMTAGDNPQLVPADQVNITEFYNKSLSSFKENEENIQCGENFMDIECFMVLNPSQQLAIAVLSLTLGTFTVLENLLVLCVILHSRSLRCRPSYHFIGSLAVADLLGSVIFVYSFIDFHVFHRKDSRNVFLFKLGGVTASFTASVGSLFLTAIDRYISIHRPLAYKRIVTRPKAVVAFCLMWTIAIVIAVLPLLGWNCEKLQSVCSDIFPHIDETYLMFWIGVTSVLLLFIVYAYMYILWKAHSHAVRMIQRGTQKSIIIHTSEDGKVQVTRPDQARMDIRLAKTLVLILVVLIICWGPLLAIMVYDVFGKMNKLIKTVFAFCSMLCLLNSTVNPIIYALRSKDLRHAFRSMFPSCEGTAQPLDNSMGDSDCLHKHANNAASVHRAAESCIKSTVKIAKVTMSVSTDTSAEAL
Method: The functional activation of CB1 receptor is based on recombinant human CB1 receptor expressed in CHO cells (Felder et al, Mol. Pharmacol. 48: 443-450, 1995). To determine the agonist activity or inverse agonist activity of any test compound, 50 ul of CB1-CHO cell suspension are mixed with test compound and 70 ul assay buffer containing 0.34 mM 3-isobutyl-1-methylxanthine and 5.1 uM of forskolin in 96-well plates. The assay buffer is comprised of Earle's Balanced Salt Solution supplemented with 5 mM MgCl2, 1 mM glutamine, 10 mM HEPES, and 1 mg/mL bovine serum albumin. The mixture is incubated at room temperature for 30 minutes, and terminated by adding 30 ul/well of 0.5M HCl. The total intracellular cAMP level is quantitated using the New England Nuclear Flashplate and cAMP radioimmunoassay kit.
To determine the antagonist activity of test compound, the reaction mixture also contains 0.5 nM of the agonist CP55940 (or 50 nM of methanandamide), and the reversal of the CP55940 (or methanandamide) effect is quantitated with increasing concentration of the test compound. Intracellular cAMP is determined as described above. An IC50 value for the test compound is calculated from the titration curve.
Alternatively, a series of dose response curves for the agonist CP55940 (or methanandamide) is performed with increasing concentration of the test compound in each of the dose response curves, and a Schild analysis is carried to calculate the Kb value which is an estimation of test compound binding affinity.

[2] = target: recombinant human CB1 receptor (Homo sapiens, UniProt P21554); experiment: Cannabinoid Receptor-1 (CB1) Binding Assay ([3H]CP-55940 displacement); conditions: recombinant human CB1 in CHO cell membranes, 0.6 nM [3H]CP-55940
Chain of recombinant human CB1 receptor (P21554 whole entry): as above
Method: Binding affinity determination is based on recombinant human CB1 receptor expressed in Chinese Hamster Ovary (CHO) cells (Felder et al, Mol. Pharmacol. 48: 443-450, 1995). Total assay volume is 250 μl (240 μl CB1 receptor membrane solution plus 5 μl test compound solution plus 5 μl [3H]CP-55940 solution). Final concentration of [3H]CP-55940 is 0.6 nM. Binding buffer contains 50 mM Tris-HCl, pH 7.4, 2.5 mM EDTA, 5 mM MgCl28, 0.5 mg/mL fatty acid free bovine serum albumin and protease inhibitors (Cat#P8340, from Sigma). To initiate the binding reaction, 5 μl of radioligand solution is added, the mixture is incubated with gentle shaking on a shaker for 1.5 h at 30° C. The binding is terminated by using 96-well harvester and filtering through GF/C filter presoaked in 0.05% polyethylenimine. The bound radiolabel is quantitated using scintillation counter. Apparent binding affinities for various compounds are calculated from IC50 values (DeBlasi et al., Trends Pharmacol Sci 10: 227-229, 1989).

| EC50 [1] | functional mode at CB1 receptor [1] | IC50 [2] | Compound |
| --- | --- | --- | --- |
| < 15 nM | functional inverse agonists | 2 nM | CC(C)(C)c1nc(C#N)c2cc(-c3ccc(C#N)cc3)c(-c3ccccc3Cl)nc2n1 [Example 69, 2-Tert-butyl-7-(2-chlorophenyl)-6-(4-cyanophenyl)pyrido[2,3-d]pyrimidine-4-carbonitrile] |
| < 15 nM | functional inverse agonists | 11 nM | CC(C)(C)c1nc(N)c2cc(-c3ccc(Cl)cc3)c(-c3ccc(Cl)cc3Cl)nc2n1 [Example 3, 2-Tert-butyl-6-(4-chlorophenyl)-7-(2,4-dichlorophenyl)pyrido[2,3-d]pyrimidin-4-amine] |
| < 15 nM | functional inverse agonists | 4 nM | Cn1c(-c2ccc(Cl)cc2)nc2nc(-c3ccccc3Cl)c(-c3ccc(Cl)cc3)cc2c1=O [Example 60, 7-(2-Chlorophenyl)-2,6-bis(4-chlorophenyl)-3-methylpyrido[2,3-d]pyrimidin-4(3H)-one] |
| < 15 nM | functional inverse agonists | 0.6 nM | CC(C)(C)c1nc(-c2ccc(F)cc2)c2cc(-c3ccc(Cl)cc3)c(-c3ccccc3Cl)nc2n1 [Example 72, 2-Tert-butyl-7-(2-chlorophenyl)-6-(4-chlorophenyl)-4-(4-fluorophenyl)pyrido[2,3-d]pyrimidine] |
| < 15 nM | functional inverse agonists | 7 nM | CC(C)(C)c1nc2nc(-c3ccccc3Cl)c(-c3ccc(Cl)cc3)cc2c(=O)[nH]1 [Example 11, 2-Tert-butyl-7-(2-chlorophenyl)-6-(4-chlorophenyl)pyrido[2,3-d]pyrimidin-4(3H)-one] |
| < 15 nM | functional inverse agonists | 2 nM | CC(C)(C)c1nc(NCC(F)(F)F)c2cc(-c3ccc(Br)cc3)c(-c3ccccc3Cl)nc2n1 [Example 58, 6-(4-Bromophenyl)-2-tert-butyl-7-(2-chlorophenyl)-N-(2,2,2-trifluoroethyl)pyrido[2,3-d]pyrimidin-4-amine] |
| < 15 nM | functional inverse agonists | 3 nM | CC(C)(C)Nc1nc(C(C)(C)C)nc2nc(-c3ccccc3Cl)c(-c3ccc(Cl)cc3)cc12 [Example 48, N,2-Di-tert-butyl-7-(2-chlorophenyl)-6-(4-chlorophenyl)pyrido[2,3-d]pyrimidin-4-amine] |
| < 15 nM | functional inverse agonists | 10 nM | CC(C)(C)c1nc2nc(-c3ccc(-c4cn[nH]c4)cc3Cl)c(-c3ccc(Cl)cc3)cc2c(=O)[nH]1 [Example 25, 2-Tert-butyl-6-(4-chlorophenyl)-7-[2-chloro-4-(1H-pyrazol-4-yl)phenyl]pyrido[2,3-d]pyrimidin-4(3H)-one] |
